Results on twelve compounds are retold here after PubChem BioAssay (NCI).

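96-well plates; 48 h exposure; 5 concentrations. Endpoints by linear interpolation between flanking doses. Not reached: highest tested concentration assigned. At the GI50, growth is halved. TGI marks complete inhibition of growth.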 Where only a bound is given, the exact number is not on record here.

Some test systems named below: SK-MEL-28 melanoma; SK-OV-3 ovarian; U251 CNS; HL-60(TB) leukemia; MDA-N; UACC-62 melanoma; 786-0 renal; SR leukemia; SN12C renal; A549 NSCLC; OVCAR-3 ovarian; LOX IMVI melanoma.
Holding throughout (test): DTP human tumour cell line panel, 48 h

For orientation: TGI means the concentration at which net growth stops. A lower TGI goes with more potent growth arrest. A word on the GI50: it is the concentration at which growth is held to half of that of the control.

`CCOC(=O)c1cnc(-n2[nH]c3c(c2=O)CCCC3)[nH]c1=O`: the TGI with SK-MEL-28 melanoma was greater than 100 µM; in the experiment with SK-OV-3 ovarian, greater than 100 µM; in the experiment with U251 CNS, greater than 100 µM; with HL-60(TB) leukemia, greater than 100 µM; in the experiment with MDA-N, greater than 100 µM; with UACC-62 melanoma, 95.4 µM. In addition, the TGI with 786-0 renal, in the experiment with SR leukemia, in the experiment with SN12C renal and in the experiment with A549 NSCLC was greater than 100 µM in each case.
As for `O=C=NCCCCCCN1C(=O)N2C(c3ccccc3)N(CCCCCCN=C=O)C(=O)N2C1c1ccccc1` (stereo not given), the TGI with OVCAR-3 ovarian, with SK-MEL-28 melanoma, in the experiment with U251 CNS, in the experiment on HL-60(TB) leukemia, in the experiment on MDA-N and with 786-0 renal was greater than 100 µM each time. Moreover, the concentration for total growth inhibition (TGI) in the experiment with LOX IMVI melanoma, with SR leukemia, with SN12C renal and in the experiment with A549 NSCLC was greater than 100 µM in each case.
On to `Cc1c(C)c(S(=O)(=O)N(CCCN)OCCCN)c(C)c2c1OC(C)(C)C2`, for which the TGI is greater than 100 µM in the experiment on OVCAR-3 ovarian; greater than 100 µM with SK-MEL-28 melanoma; greater than 100 µM in the experiment with SK-OV-3 ovarian; 38.3 µM in the experiment on U251 CNS; 33.6 µM with MDA-N; greater than 100 µM with UACC-62 melanoma. The TGI in the experiment with 786-0 renal is 68 µM; with LOX IMVI melanoma, 34.9 µM; in the experiment on SR leukemia, greater than 100 µM; in the experiment with SN12C renal, greater than 100 µM; in the experiment on A549 NSCLC, greater than 100 µM.
Take `CC1OC(OC2C(O)COC(OC3C(C)OC(OC4C(OC(=O)[C@]56CCC(C)(C)C[C@@H]5C5=CCC7[C@@]8(C)C[C@H](O)[C@H](OC9OC(CO)C(O)C(OC%10OC(CO)C(O)C(O)C%10O)C9O)[C@@](C)(CO)[C@@H]8CC[C@@]7(C)[C@]5(C)CC6)OCC(O)C4O)C(O)C3O)C2O)C(O)C(O)C1O` (stereo not given in full): the TGI was found to be 29.4 µM in the experiment with OVCAR-3 ovarian; 22.9 µM in the experiment on SK-MEL-28 melanoma; 30.3 µM in the experiment on SK-OV-3 ovarian; 32.8 µM in the experiment on U251 CNS; 32 µM with MDA-N; 39.8 µM with UACC-62 melanoma. Further, the TGI in the experiment on 786-0 renal came to 30 µM; in the experiment with LOX IMVI melanoma, 35 µM; in the experiment with SR leukemia, 25.8 µM; in the experiment on SN12C renal, 25.2 µM; in the experiment on A549 NSCLC it was 28.6 µM.
Turning to `O=C(O)CCCOc1cc(-c2ccccc2F)nc2cc3c(cc12)OCO3`, the GI50 in the experiment on OVCAR-3 ovarian was 2350 nM. For the same compound, the TGI with OVCAR-3 ovarian is 6.74 µM; in the experiment with SK-MEL-28 melanoma it was greater than 100 µM; in the experiment on SK-OV-3 ovarian, greater than 100 µM; with U251 CNS it was greater than 100 µM; in the experiment on MDA-N, 4.45 µM; in the experiment with UACC-62 melanoma, greater than 100 µM. Further, the concentration for total growth inhibition (TGI) in the experiment with 786-0 renal, in the experiment on LOX IMVI melanoma, with SR leukemia, in the experiment with SN12C renal and in the experiment with A549 NSCLC was greater than 100 µM throughout.
Take `O=C(O)c1oc(C(=O)O)c(C(=O)O)c1C(=O)O`: the TGI in the experiment with OVCAR-3 ovarian, in the experiment with SK-MEL-28 melanoma, in the experiment on U251 CNS, with HL-60(TB) leukemia, in the experiment with MDA-N and with UACC-62 melanoma was greater than 100 µM each time. The TGI in the experiment with 786-0 renal, with LOX IMVI melanoma, in the experiment on SR leukemia, in the experiment with SN12C renal and in the experiment with A549 NSCLC was greater than 100 µM each time.
With `CN(C)C(=O)Oc1ccc(-c2cn3cc(NC(=O)c4ccccc4)ccc3n2)cc1`, the TGI in the experiment on OVCAR-3 ovarian, in the experiment with SK-MEL-28 melanoma, with SK-OV-3 ovarian, in the experiment on U251 CNS, in the experiment on MDA-N and with UACC-62 melanoma was greater than 100 µM in each case. The total growth inhibition concentration (TGI) in the experiment with 786-0 renal, in the experiment with LOX IMVI melanoma, in the experiment on SR leukemia, with SN12C renal and in the experiment on A549 NSCLC was greater than 100 µM throughout.
Regarding `C=C1C(=O)O[C@H]2[C@H]1CC(=O)/C(C)=C/CC[C@@]1(C)O[C@@H]21`, the TGI turned out to be 0.6 µM in the experiment with OVCAR-3 ovarian; 1.3 µM in the experiment with SK-MEL-28 melanoma; 25.9 µM in the experiment on SK-OV-3 ovarian; 13.6 µM in the experiment on U251 CNS; 1.27 µM in the experiment with MDA-N; 2.76 µM in the experiment on UACC-62 melanoma. The total growth inhibition concentration (TGI) in the experiment with 786-0 renal came out at 1.53 µM; in the experiment with LOX IMVI melanoma, 1.47 µM; with SR leukemia, 7.74 µM; in the experiment on SN12C renal it was 3.93 µM; with A549 NSCLC, 27.9 µM.
Take `Cc1cn(C2CC(N)C(C(=O)O)O2)c(=O)[nH]c1=O` (stereo not given): the TGI in the experiment with OVCAR-3 ovarian, with SK-OV-3 ovarian, with U251 CNS, in the experiment with HL-60(TB) leukemia, in the experiment on MDA-N and in the experiment with UACC-62 melanoma was greater than 100 µM in each case. Besides, the concentration for total growth inhibition (TGI) with 786-0 renal, in the experiment with SR leukemia, in the experiment on SN12C renal and in the experiment on A549 NSCLC was greater than 100 µM throughout.
Regarding `COc1cc(/C=C/c2cc(/C=C/c3ccc(O)c(OC)c3)oc(=O)c2)ccc1O`, the TGI in the experiment with OVCAR-3 ovarian is 5.68 µM; in the experiment on SK-MEL-28 melanoma, greater than 100 µM; with SK-OV-3 ovarian, greater than 65.2 µM; with U251 CNS, greater than 51.8 µM; in the experiment with MDA-N, greater than 100 µM; with UACC-62 melanoma, 18.5 µM. Besides, the TGI in the experiment on 786-0 renal was 34.9 µM; with LOX IMVI melanoma it was 15.7 µM; in the experiment with SR leukemia it was greater than 31.2 µM; in the experiment with SN12C renal, greater than 71.4 µM; with A549 NSCLC, greater than 100 µM.
Take `Cc1c(C)c2c(c(N)c1C#N)C(=O)N(CCN1CCNCC1)C2=O`: the concentration for total growth inhibition (TGI) was greater than 100 µM in the experiment with OVCAR-3 ovarian; greater than 100 µM in the experiment with SK-MEL-28 melanoma; greater than 100 µM with U251 CNS; greater than 100 µM with HL-60(TB) leukemia; greater than 100 µM in the experiment with MDA-N; 62.4 µM in the experiment with UACC-62 melanoma. Besides, the total growth inhibition concentration (TGI) is greater than 100 µM in the experiment on 786-0 renal; 47.9 µM in the experiment with LOX IMVI melanoma; 95 µM in the experiment on SR leukemia; greater than 100 µM in the experiment with SN12C renal; greater than 100 µM in the experiment with A549 NSCLC.
Regarding `CCCCC(=O)Oc1ccc2c(C)cc(=O)oc2c1`, the total growth inhibition concentration (TGI) with OVCAR-3 ovarian, with SK-MEL-28 melanoma, in the experiment on U251 CNS, in the experiment with HL-60(TB) leukemia, in the experiment on MDA-N and with UACC-62 melanoma was greater than 100 µM in each case. In addition, the concentration for total growth inhibition (TGI) in the experiment on 786-0 renal, with LOX IMVI melanoma, in the experiment with SR leukemia, in the experiment with SN12C renal and in the experiment on A549 NSCLC was greater than 100 µM each time.
